The values that follow come from PubChem BioAssay AID328 (DTP/NCI, 2004).

Each structure is given as a SMILES string. Values joined by “and” are separate entries in the source; they are usually repeats but may differ in a detail not shown here. Equal values may be shown once. Toxic doses and inconclusive results are not listed.

The assay has as its system BDF1 mice, P388 leukemia ip, median survival T/C. In words: NCI In Vivo Anticancer Drug Screen. Data for tumor model P388 Leukemia (intraperitoneal) in B6D2F1 (BDF1) mice. The note with it: endpoint: median survival time, higher = longer survival. Summed up:
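Mice carrying the transplantable tumour receive compound or vehicle. Survival is followed in each arm, and the treated measure is divided by the vehicle measure.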

[1] abbreviates: dose: 50.0 mg/kg/injection, schedule: Q01DX009 (ip), vehicle: saline.
The mark [2] stands for this setting: dose: 100.0 mg/kg/injection, schedule: Q01DX009 (ip), vehicle: saline.
Where [3] appears, read: dose: 50.0 mg/kg/injection, schedule: Q04DX003 (ip), vehicle: saline with Tween-80.
Setting [4] is: dose: 12.5 mg/kg/injection, schedule: Q01DX009 (ip), vehicle: saline.
The mark [5] stands for this setting: dose: 25.0 mg/kg/injection, schedule: Q01DX009 (ip), vehicle: saline.
Where [6] appears, read: dose: 100.0 mg/kg/injection, schedule: Q04DX003 (ip), vehicle: saline with Tween-80.
[7] abbreviates: dose: 200.0 mg/kg/injection, schedule: Q04DX003 (ip), vehicle: saline with Tween-80.

Consider `O=C1CN(CCN2CC(=O)NC(=O)C2)CC(=O)N1`, for which the T/C is, setting by setting: (dose: 3.12 mg/kg/injection, schedule: Q03HX024 (ip), vehicle: steriod suspending solution) 105 % of control; (dose: 6.25 mg/kg/injection, schedule: Q03HX024 (ip), vehicle: steriod suspending solution) 117 % of control; (dose: 12.5 mg/kg/injection, schedule: Q01DX009 (ip), vehicle: steriod suspending solution) 94 % of control; (dose: 12.5 mg/kg/injection, schedule: Q03HX024 (ip), vehicle: steriod suspending solution) 152 % of control; (dose: 15.0 mg/kg/injection, schedule: Q01DX010 (ip), vehicle: saline) 314 % of control and 222 % of control; (dose: 25.0 mg/kg/injection, schedule: Q01DX009 (ip), vehicle: steriod suspending solution) 105 % of control. For the same molecule, the T/C by setting is: (dose: 25.0 mg/kg/injection, schedule: Q03HX024 (ip), vehicle: steriod suspending solution) 152 % of control; (dose: 30.0 mg/kg/injection, schedule: Q01DX010 (ip), vehicle: saline) 272 % of control and 176 % of control; (dose: 50.0 mg/kg/injection, schedule: Q03HX024 (ip), vehicle: steriod suspending solution) 123 % of control; (dose: 60.0 mg/kg/injection, schedule: Q01DX010 (ip), vehicle: saline) 118 % of control and 219 % of control; (dose: 100.0 mg/kg/injection, schedule: Q01DX001 (ip), vehicle: steriod suspending solution) 100 % of control; (dose: 100.0 mg/kg/injection, schedule: Q01DX009 (ip), vehicle: steriod suspending solution) 164 % of control. The T/C is 105 % of control (dose: 100.0 mg/kg/injection, schedule: Q04DX003 (ip), vehicle: steriod suspending solution); 105 % of control (dose: 200.0 mg/kg/injection, schedule: Q01DX001 (ip), vehicle: steriod suspending solution); 111 % of control (dose: 200.0 mg/kg/injection, schedule: Q04DX003 (ip), vehicle: steriod suspending solution); 111 % of control (dose: 400.0 mg/kg/injection, schedule: Q01DX001 (ip), vehicle: steriod suspending solution); 117 % of control (dose: 800.0 mg/kg/injection, schedule: Q01DX001 (ip), vehicle: steriod suspending solution); 182 % of control (dose: 800.0 mg/kg/injection, schedule: Q04DX003 (ip), vehicle: steriod suspending solution).

Regarding `CC(O)CN1CNC(=S)NC1` (centres undefined), the T/C is 99 % of control under setting [1]; 101 % of control under setting [2]; 106 % of control (dose: 200.0 mg/kg/injection, schedule: Q01DX009 (ip), vehicle: saline).

In the case of `CN(C)CC/C=C1\c2ccccc2C(C)(C)c2ccc(Cl)cc21`, the T/C (dose: 6.0 mg/kg/injection, schedule: Q04DX003 (ip), vehicle: saline with Tween-80) is 95 % of control; the T/C (dose: 6.25 mg/kg/injection, schedule: Q01DX009 (ip), vehicle: Klucel (hydroxypropylcellulose) (HPC)) is 100 % of control; the T/C (dose: 11.0 mg/kg/injection, schedule: Q04DX003 (ip), vehicle: saline with Tween-80) is 104 % of control; the T/C (dose: 12.5 mg/kg/injection, schedule: Q01DX009 (ip), vehicle: Klucel (hydroxypropylcellulose) (HPC)) is 111 % of control; the T/C (dose: 16.5 mg/kg/injection, schedule: Q01DX009 (ip), vehicle: Klucel (hydroxypropylcellulose) (HPC)) was 90 % of control and 100 % of control; the T/C (dose: 22.0 mg/kg/injection, schedule: Q04DX003 (ip), vehicle: saline with Tween-80) is 104 % of control. Also, the T/C runs as follows: (dose: 25.0 mg/kg/injection, schedule: Q01DX009 (ip), vehicle: Klucel (hydroxypropylcellulose) (HPC)) 88 % of control and 100 % of control; (dose: 33.0 mg/kg/injection, schedule: Q04DX003 (ip), vehicle: saline with Tween-80) 100 % of control and 104 % of control; (dose: 37.5 mg/kg/injection, schedule: Q01DX009 (ip), vehicle: Klucel (hydroxypropylcellulose) (HPC)) 90 % of control and 92 % of control; under setting [3], 110 % of control and 112 % of control; (dose: 55.0 mg/kg/injection, schedule: Q01DX009 (ip), vehicle: Klucel (hydroxypropylcellulose) (HPC)) 95 % of control; (dose: 75.0 mg/kg/injection, schedule: Q04DX003 (ip), vehicle: saline with Tween-80) 115 % of control and 120 % of control. Besides, the T/C by setting is: (dose: 85.0 mg/kg/injection, schedule: Q01DX009 (ip), vehicle: Klucel (hydroxypropylcellulose) (HPC)) 87 % of control; (dose: 125.0 mg/kg/injection, schedule: Q01DX009 (ip), vehicle: Klucel (hydroxypropylcellulose) (HPC)) 95 % of control.

For `Nc1ccn(CC(=O)c2ccco2)c(=O)n1`, the T/C (dose: 6.25 mg/kg/injection, schedule: Q01DX009 (ip), vehicle: saline) was 109 % of control; the T/C under setting [4] was 95 % of control; the T/C under setting [5] is 95 % of control and 109 % of control; the T/C under setting [1] was 86 % of control; the T/C (dose: 50.0 mg/kg/injection, schedule: Q04DX003 (ip), vehicle: saline) was 105 % of control; the T/C (dose: 100.0 mg/kg/injection, schedule: Q04DX003 (ip), vehicle: saline) was 105 % of control.

`CC(=O)NCCSC(=O)C(=O)SCCNC(C)=O`: the T/C reads like this: (dose: 75.0 mg/kg/injection, schedule: Q01DX009 (ip), vehicle: Klucel (hydroxypropylcellulose) (HPC)) 100 % of control; (dose: 150.0 mg/kg/injection, schedule: Q01DX009 (ip), vehicle: Klucel (hydroxypropylcellulose) (HPC)) 95 % of control.

In the case of `CCOc1cc(C=Nc2cccc(C(F)(F)F)c2)ccc1O`, the T/C is 95 % of control (dose: 100.0 mg/kg/injection, schedule: Q04DX003 (ip), vehicle: other) and 95 % of control (dose: 400.0 mg/kg/injection, schedule: Q04DX003 (ip), vehicle: other).

In the case of `NC(N)=Nc1ccc(S(=O)(=O)O)cc1`, the T/C by setting is: under setting [4], 108 % of control; under setting [5], 108 % of control; under setting [1], 91 % of control; under setting [2], 106 % of control.

In the case of `CCN1C=C/C(=C/c2cc3scc(-c4ccccc4)[n+]3c3ccccc23)c2ccccc21`, the T/C is 100 % of control (dose: 0.08 mg/kg/injection, schedule: Q01DX009 (ip), vehicle: saline); 108 % of control (dose: 0.16 mg/kg/injection, schedule: Q01DX009 (ip), vehicle: saline); 120 % of control (dose: 0.32 mg/kg/injection, schedule: Q01DX009 (ip), vehicle: saline).

With `Cc1c2oc3c(C)ccc(C(=O)NCc4cccnc4)c3nc-2c(C(=O)NCc2cccnc2)c(N)c1=O`, the T/C is, setting by setting: under setting [6], 96 % of control; under setting [7], 96 % of control; (dose: 400.0 mg/kg/injection, schedule: Q04DX003 (ip), vehicle: saline with Tween-80) 100 % of control.

For `C/C1=C/C2=CC(C)C[C@@H]2C(=O)[C@]2(C)C(=O)CC(C)(C)[C@H]2CC1=O` (some centres undefined), the T/C (dose: 0.12 mg/kg/injection, schedule: Q01DX009 (ip), vehicle: alcohol) is 106 % of control; the T/C (dose: 0.25 mg/kg/injection, schedule: Q01DX009 (ip), vehicle: alcohol) is 122 % of control; the T/C (dose: 1.4 mg/kg/injection, schedule: Q01DX009 (ip), vehicle: alcohol) is 108 % of control; the T/C (dose: 2.2 mg/kg/injection, schedule: Q01DX009 (ip), vehicle: alcohol) was 110 % of control.

Regarding `O=C(OCC1OC(n2cnc3c(=S)nc[nH]c32)C(OC(=O)c2ccc([N+](=O)[O-])cc2)C1OC(=O)c1ccc([N+](=O)[O-])cc1)c1ccc([N+](=O)[O-])cc1` (centres undefined), the T/C runs as follows: (dose: 50.0 mg/kg/injection, schedule: Q01DX009 (ip), vehicle: Klucel (hydroxypropylcellulose) (HPC)) 100 % of control; (dose: 100.0 mg/kg/injection, schedule: Q01DX009 (ip), vehicle: Klucel (hydroxypropylcellulose) (HPC)) 109 % of control; (dose: 200.0 mg/kg/injection, schedule: Q01DX009 (ip), vehicle: Klucel (hydroxypropylcellulose) (HPC)) 109 % of control; (dose: 400.0 mg/kg/injection, schedule: Q01DX009 (ip), vehicle: Klucel (hydroxypropylcellulose) (HPC)) 118 % of control.

In the case of `COc1cc(/C=C2\C(=O)NC(=O)N(c3ccccc3)C2=O)cc(OC)c1OC`, the T/C (dose: 25.0 mg/kg/injection, schedule: Q01DX009 (ip), vehicle: saline with Tween-80) is 109 % of control; the T/C (dose: 50.0 mg/kg/injection, schedule: Q01DX009 (ip), vehicle: saline with Tween-80) is 118 % of control; the T/C under setting [3] is 100 % of control; the T/C (dose: 100.0 mg/kg/injection, schedule: Q01DX009 (ip), vehicle: saline with Tween-80) was 118 % of control; the T/C under setting [6] is 108 % of control; the T/C under setting [7] was 112 % of control.
